Experimental data reported in patent publication EP3568131B1, “COMPOSITION COMPRISING 7-HYDROXYMATAIRESINOL FOR USE IN THE TREATMENT AND IN THE PREVENTION OF TRICHOLOGICAL DISEASES OF INFLAMMATORY AND/OR HORMONAL ORIGIN” (Sinerga Group S.r.l., priority 2017, dated 2018).
Where two headings read alike, the source gives them in different places.

Assays:
[1] = MTT cytotoxicity test on reconstituted 3D epidermis; assay type: cell-based; details: human
Procedure: • Cytotoxicity through the MTT test at the end of incubation: cell survival test with 3D human epidermis reconstituted in vitro for the evaluation of the cytotoxic potential caused by the sample. • Inhibition of the release of cellular mediators of inflammation (IL-1α) after stress induced with SLS.
(§1) The cell model used for in vitro tests is represented by a three-dimensional system of reconstituted human epidermis in vitro.
(§2) This three-dimensional cellular model is made up of normal human primary keratinocytes, left to grow in vitro in order to simulate the multi-layered architecture of the human epidermis, with a well-differentiated stratum corneum. The model was purchased from CELLSYSTEMS (Troisdorf, batch 100-AE1818-1).
(§3) The skin irritation characterized by the release of IL-1α was caused by an epidermis pre-treatment for 60 minutes with SLS 0.25%.
(§4) Subsequently, 30µl of diluted sample were placed on two units and the exposure was extended for 24 hours at 37°C, 5% CO2. The sample was diluted to 0.25% in phosphate buffer.
(§5) As a negative control, two units of epidermis were treated with phosphate buffer (PBS), as a positive control two units were treated for 60' with 0.25% SLS. The test was carried out in duplicate.
At the end of the exposure, the sample and the references were removed by washing with phosphate buffer (PBS) and the cell viability was assessed.
The epidermis was incubated for 3h at 37°C with a lmg/ml solution of MTT (3- [4,5-dimethylthiazol-2-yl] -2,5-diphenyl tetrazolium bromide).
Then the solution was removed and replaced with isopropanol with subsequent 2 h incubation at room temperature.
Two aliquots of each sample were transferred to a 96-well plate for reading the absorbance, which was carried out at the wavelength of 570 nm, with a colorimeter (Tecan, model Sunrise remote) equipped with a plate reader.
The result was expressed as a cellular viability in percent according to the formula: % cell viability = [OD (570 nm) tested sample/OD (570 nm) CN] x 100

IL-1α = IL-1α release (ELISA) after SLS-induced stress on reconstituted epidermis; assay type: cell-based, human; details: for IL-1α % inhibition: vs positive control
From the text: The study concerns the in vitro evaluation of the anti-inflammatory potential of 7-hydroxymatairesinol against the inflammatory reaction induced by moderate irritants such as sodium lauryl sulphate (SLS), using a model of human skin cells grown in vitro in multilayer.
The inhibition of the cytokine IL-1α release caused by SLS is investigated by specific ELISA tests in the presence of the tested substance compared to untreated skin samples.
as §1, §2, §3, §4, §5
For the analysis of IL-1α, samples of culture medium were taken at 6 and 24 hours. The maintenance medium of the units treated with PBS and the medium of two non-irritated skin units treated only with the sample were taken as negative control, whereas the culture medium of two skin units treated with the 0.25% SLS solution was used as a positive control.
In this study, IL-1α was dosed using the direct-type ELISA (Enzyme-linked immunosorbent assay) method, i.e. the colour development was directly proportional to the amount of cytokines in the culture medium.
The reading was carried out at 450 nm. The sensitivity limit of this test was less than 10 pg/ml.
The IL-1α concentration was determined using a standard curve as a reference. The inhibition of IL1-α release was determined as: % IL-1α inhibition: 100- (pg/ml IL-1α released from the irritated sample/pg/ml IL-1α positive control)* 100

[2] = tested on: human hair dermal papilla cells (HHDPC); assay: MTT cell viability test after cell cycle synchronization (cell proliferation); assay type: cell-based; details: for viability at 200 µg/mL / viability at 1000 µg/mL: Homo sapiens, HHDPC, vs negative control; for viability at 200 µg/mL: 0.2 mg/ml of 5% glycerine solution; for viability at 1000 µg/mL: 1 mg/ml of 5% glycerine solution
From the text: (§6) The purpose of the test is quantitatively establishing the effects of 7-hydroxymatairesinol (HMR) on cell proliferation and on the synthesis of total proteins in human fibroblasts of the dermal papilla through the cell viability test (MTT test) after cycle synchronization, and establishing the protein dosage at different exposure times and at different sub-toxic sample dilutions.
(§7) Dermal papilla cells derived from human hair follicle (HHDPC: human hair dermal papilla cells) with fibroblastic morphology. The cells are cultured in DMEM containing 10% FBS and antibiotics.
(§8) The cells were seeded in 24-well plates and left to grow for 24h at 37°C and 5% CO2. Then they were deprived of the serum 6 hours before the experiment for cell cycle synchronization.
(§9) After 6 hours, fresh culture medium was added without serum but containing the sample to be tested in order to reach different final dilutions. The 5% glycerine-solubilized sample was dissolved in the culture medium. The test was carried out in triplicate.
(§10) After 24 and 48 hours of exposure, the MTT cell viability test and the total protein test using the Bradford method^1 were carried out on separate plates. Untreated cells were used as a negative control (CN), while cells treated with human insulin were used as a positive control (CP).
This method was originally developed by Mossman^2. After 24 and 48 hours of treatment, cell viability was evaluated by incubating the cells with MTT (3-[4,5-dimethylthiazol-2-yl]-2,5-diphenyl tetrazolium bromide) for 2 hours.
The precipitated formazan crystals were then extracted using isopropanol or DMSO and were spectrophotometrically quantified at 570 nm against 650 nm. The absorbance was read with a colorimeter (Tecan, model Sunrise remote) equipped with a plate reader subtracting the reading of the bottom.
The cell viability was expressed as a percentage according to the formula: % of cell viability = [OD(570nm−650nm)testedproduct/OD(570nm−650nm)CN] × 100 [formula] OD: Optical density

[3] = tested on: human fibroblasts of the dermal papilla (HHDPC); assay: Total protein dosage (Bradford method); assay type: cell-based; details: for activation at 1000 µg/mL: 1 mg/ml of 5% glycerine solution
From the text: as §6, §7, §8, §9, §10
The protein dosage was carried out according to the Bradford method. At the end of the treatment, the cells were washed with sterile PBS and lysed by treatment with purified water at 4°C. The colouring reagent was added to the lysate. A standard curve of albumin titrated to 20, 40, 80 and 100 µg/ml was prepared in a similar manner.
Then 200 µl of each sample, controls and standards, each in triplicate, were transferred to a 96-well plate. The reading was carried out with a colorimeter (Tecan, Sunrise) equipped with a plate reader, at 595 nm.
To quantify proteins, a standard albumin calibration curve was drawn and sample concentrations were calculated using the interpolation curve formula and relative absorbances. The averages of the individual data were then calculated, and for each sample the percentage of increase in protein synthesis was calculated, with respect to the negative control: % protein synthesis increment = (μg/mlsampleprotein/μg/mlCN)∗100 [formula]

5α-reductase = assay: Gene expression of 5α-reductase by qRT-PCR in testosterone-treated dermal papilla cells; assay type: cell-based; details: Homo sapiens, HHDPC, 48 h
From the text: Measurement of the gene expression level of 5α-reductase by means of Real Time Polymerase Chain Reaction (qRT-PCR) in human cells of the dermal papilla with and without treatment with the sample. The purpose of the test is to highlight and quantify changes in gene expression of 5α-reductase levels in cell cultures exposed to treatment with the tested substance compared to controls of the same untreated cells. This enzyme is expressed in skin melanocytes, fibroblasts and keratinocytes and turns testosterone into di-hydro-testosterone, a key metabolite implicated in various skin disorders such as acne vulgaris, hirsutism, seborrhoea and androgenetic alopecia. After birth, the 5α-reductase enzyme (type 1) is expressed in multiple body areas, including liver, skin, scalp and prostate. 5α-reductase (type 2) is expressed in prostate, seminal vesicles, epididymis, liver, and, to a lesser extent, scalp and skin. In this test, the cells are previously treated with testosterone to induce 5α-reductase production and are exposed to various test substances for 48 hours. A titrated extract of Serenoa repens, a known pharmacologically active compound used to treat benign prostatic hyperplasia, is used as a positive control. The analysis is carried out through RT-qPCR (Real Time Quantitative Polymerase Chain Reaction), a very sensitive method for the detection and quantification of messenger RNA coding for the protein in analysis and therefore for the corresponding gene activation. RT-qPCR measures the fluorescence emitted by the amplicons produced during each PCR cycle. A culture of human dermal papilla (HHDPC) cells was used. The cells were grown in MEM containing 10% FBS and antibiotics. The cells were seeded in 12-well plates for 24 hours. Then they were treated for 24 hours with 10 ng/ml of testosterone. After this step, fresh culture medium containing the sample to be tested was added. The sample was dissolved directly in the culture medium. The concentrations of the sample to be tested were selected based on preliminary cytotoxicity. […] After precipitation and centrifugation (30' at 12,000 rpm at 4°C), the RNA was resuspended in 20 µl of sterile water and its concentration was determined by spectrophotometry. […] Changes in the gene expression profile are analysed by RT-qPCR using Syber Green as a fluorescent molecule. […] The detection of the fluorescence emitted in each cycle allows monitoring the PCR reaction during the exponential phase, namely where the first significant increases in the PCR product are related to the initial amount of template. […] Subsequently, data can be expressed as "fold change", namely as a ratio with respect to control (a) or as a percentage with respect to control (b). […]

[4] = increase on fibroblasts of human dermal papilla compared to untreated cells
[5] = 6 h, sample 0.25% after SLS 0.25% pre-treatment
[6] = 24 h, sample 0.25% after SLS 0.25% pre-treatment

## CCCCCCCCCCCCOS(=O)(=O)[O-].[Na+] [SLS, sodium lauryl sulphate, reference compound]
[1]; SLS 0.25% for 60 minutes, positive control, read-out: % average cell viability (ds)
  viability at 1 h: 50%
[1]; positive control (SLS 0.25%), test acceptability table
  viability: 50%
IL-1α; 6 h, SLS 0.25% for 60 minutes, positive control
  IL-1α Mean: 22.92 pg/mL
IL-1α; 24 h, SLS 0.25% for 60 minutes, positive control
  IL-1α Mean: 200.72 pg/mL

## COc1cc(C[C@H]2C(=O)OC[C@@H]2[C@H](O)c2ccc(O)c(OC)c2)ccc1O [HMR, 7-hydroxymatairesinol]
[2]; 24 h
  viability at 200 µg/mL: 110%
  viability at 1000 µg/mL: 99.7%
[2]; 48 h
  viability at 200 µg/mL: 119%
  viability at 1000 µg/mL: 105%
[2]; [4]
  cell proliferation: 19%
[3]; Homo sapiens, Fibroblast, HHDPC, 24 h, 0.2 mg/ml of 5% glycerine solution, increase vs negative control, read-out: % protein synthesis
  activation at 200 µg/mL: 10.4%
[3]; Homo sapiens, Fibroblast, HHDPC, 24 h, increase vs negative control, read-out: % protein synthesis
  activation at 1000 µg/mL: 24.5%
[3]; Homo sapiens, Fibroblast, HHDPC, 48 h, increase vs negative control, read-out: % protein synthesis
  activation at 1000 µg/mL: 16.8%
[3]; [4]
  protein synthesis: 24%
[1]; sample 0.25% in phosphate buffer alone, 24 hours exposure, read-out: % average cell viability (ds)
  viability at 24 h: 78.2%
[1]; sample 0.25%, 24 hours, after 60 minutes pre-treatment with SLS 0.25%, read-out: % average cell viability (ds)
  viability at 24 h: 55.9%
IL-1α; [5]
  IL-1α Mean: 19.72 pg/mL
  IL-1α % inhibition: 13.94%
IL-1α; 6 h, sample 0.25% alone, non-irritated epidermis
  IL-1α Mean: 18.07 pg/mL
IL-1α; [6]
  IL-1α Mean: 97.70 pg/mL
  IL-1α % inhibition: 51.32%
IL-1α; 24 h, sample 0.25% alone, non-irritated epidermis
  IL-1α Mean: 26.40 pg/mL
5α-reductase; 0.2 mg/ml of solution (stated as 0.01% HMR), vs untreated control, read-out: % 5a-reductase (ds) expression
  mrna remaining at 0.01 %: 90.9%
5α-reductase; 0.2 mg/ml of solution (stated as 0.01% HMR), vs untreated control, read-out: % reduction
  inhibition at 0.01 %: 9.07%
5α-reductase; 1 mg/ml of solution (stated as 0.05% HMR), 5α-reductase mRNA vs untreated control, read-out: % reduction
  inhibition at 0.05 %: 57.1%
5α-reductase; 1 mg/ml of solution (stated as 0.05% HMR), vs untreated control, read-out: % 5a-reductase (ds) expression
  mrna remaining at 0.05 %: 42.9%
